Measurements: publication PMC13492380, “Dissecting Structural and Functional Determinants of Microtubules Stabilization through Guided Chemical Modulation” (Journal of Medicinal Chemistry, 2026)

Legend:
[1] = tested on: Tau-mCherry (Tau 441 isoform) on stabilized MTs from porcine brain tubulin; assay: Tau-mCherry binding to stabilized MTs (TIRF); assay type: biochemical; settings: 40 nM Tau-mCherry
From the text: Previous studies in vitro have shown that Tau molecules strongly prefer compacted GDP lattices. Tau binds cooperatively to MT surfaces, resulting in a cohesive layer depending on tau-tau interactions, termed MT envelope, which selectively regulates access to MT lattices, and shields MTs from severing enzymes. − On expanded PTX-MTs, Tau envelope also forms and the lattice can get locally compacted. To further explore how MT lattice structure influences Tau binding, we employed an in vitro reconstitution assay. We deposited stabilized MTs in a flow chamber, and visualized them via interference reflection microscopy (Figure C). We then added 10 nM Tau-mCherry (labeled purified Tau 441 isoform at the C-terminus with mCherry) and monitored its association with MTs using time-lapse TIRF microscopy. After 4 min, we increased Tau concentration to 40 nM, and continued imaging for an additional 4 min. We measured fluorescence intensities along MTs to quantify Tau binding (Movies S16–S27). […] PTXpost-MTs also supported […] faster envelope growth (0.20 ± 0.02 μm/s versus 0.054 ± 0.006 μm/s for PTXpre-MTs, Figure H).
(§1) Total Internal Reflection Fluorescence microscopy experiments were performed on an inverted widefield microscope Nikon-Ti2 E, equipped with a motorized XY-stage, a perfect focus system, Apo TIRF 60× oil NA 1.49 objective and PRIME BSY (Teledyne Photometrics) camera. MTs were visualized using Interference Reflection microscopy (IRM) and fluorescently labeled proteins were visualized sequentially by switching between microscope filter cubes for GFP and mCherry channels. The microscopes were controlled using NIS Elements software (Nikon). All experiments were conducted at RT.
(§2) Microscopy chambers were prepared from two sandwiched silanized glass coverslips (22 × 22 mm^2 and 18 × 18 mm^2) attached through parafilm strips (heated for 15–20 s at 60 °C and gently pressed together) to form ∼2.5 mm wide parallel flow channels. Prior to the chamber assembly, the coverslips were washed in 3 M KOH, cleaned using Zepto plasma cleaner (Diener electronic) and silanized with hexamethyldisilazane. Flow channels were first incubated with 40 μgml^–1 antibiotin antibodies (Sigma, B3640) in PBS for 10 min, followed by incubation with 1% Pluronic F127 (Sigma-Aldrich, P2443) in PBS for at least 1 h. F127 was washed with BRB80 (80 mM PIPES, 1 mM EGTA, 1 mM MgCl2, pH 6.9).
(§3) Porcine brain tubulin was isolated using the high-molarity PIPES procedure then mixed with Biotin labeled tubulin (Cytoskeleton Inc., T333P) in 1:49 ratio. All MTs were polymerized using 2% biotin-labeled tubulin. […] Polymerized MTs were centrifuged for 30 min at 18,000g in a Microfuge 18 Centrifuge (Beckman Coulter’s). […] Drug stabilized preassembly MTs (polymerized in the presence of drugs and GTP, stored and imaged in presence of drug) were polymerized from 4 mg mL^–1 biotinylated tubulin for 30 min at 37 °C in BRB80 supplemented with 4 mM MgCl2, 40 μM drug of interest in 5% DMSO, and 1 mM GTP. Polymerized MTs were centrifuged for 30 min at 18,000g in a Microfuge 18 Centrifuge (Beckman Coulter’s). […] GMPCPP stabilized MTs (GMPCPP polymerized) were assembled from 4 mg mL^–1 biotinylated tubulin for 2 h at 37 °C in BRB80 supplemented with 1 mM MgCl2 and 1 mM GMPCPP (Jena Bioscience, NU-405). Polymerized MTs were centrifuged for 30 min at 18,000g in a Microfuge 18 Centrifuge (Beckman Coulter’s) and pellets were resuspended and kept in BRB80.
Stabilized MTs were flushed into the channel and incubated for 15–30 s to allow for surface attachment. Unbound MTs were removed by washing with BRB80 supplemented with 10 μM of drug. Prior the experiment, the solution was exchanged by motility buffer, MB (BRB80 containing 10 mM DTT, 20 mM D-glucose, 0.1% Tween-20, 0.5 mg/mL casein, 1 mM Mg-ATP, 0.02 mg/mL catalase, 0.22 mg/mL glucose oxidase, 10 μM drug). Subsequently, a solution containing either 1.08 nM Kif5b-EGFP or 10/40 nM mCherry-Tau in MB was introduced into the chamber. […]

[2] = tested on: human Kif5B 1–905-EGFP on stabilized MTs; assay: Single-molecule kinesin-1 motility assay on stabilized MTs (TIRF); assay type: biochemical; settings: 1.08 nM Kif5b-EGFP, 10 μM drug
Procedure: To gain mechanistic insight into the kinesin phenotype observed in cells, we reduced system complexity using an in vitro reconstitution assay. Specifically, we performed time-lapse imaging using total internal reflection fluorescence (TIRF) microscopy with immobilized and stabilized MTs in a flow chamber, into which we introduced 1.08 nM kinesin-1 motors (constitutively active human Kif5B 1–905-EGFP). We then analyzed individual kinesin movements to quantify landing rates (number of motors per unit MT length per unit time), run lengths, interaction times, and average velocities (Figure D, Movies S12–S15). In contrast to our experiments in cells, here we evaluated each structural modification individually to dissect the effects of MT lattice parameters on kinesin-1 mediated transport.
as §1, §2, §3
Stabilized MTs were flushed into the channel and incubated for 15–30 s to allow for surface attachment. Unbound MTs were removed by washing with BRB80 supplemented with 10 μM of drug. Prior the experiment, the solution was exchanged by motility buffer, MB (BRB80 containing 10 mM DTT, 20 mM D-glucose, 0.1% Tween-20, 0.5 mg/mL casein, 1 mM Mg-ATP, 0.02 mg/mL catalase, 0.22 mg/mL glucose oxidase, 10 μM drug). Subsequently, a solution containing either 1.08 nM Kif5b-EGFP or 10/40 nM mCherry-Tau in MB was introduced into the chamber.
To assess kinesin-EGFP motility along MTs, an IRM image (50 ms exposure) was acquired followed by a 1 min video using 488 nm laser excitation (20% laser intensity, 300 ms exposure) with no delay. Two to three videos were recorded from different fields within the same channel and at least 2 channels were measure for each experimental condition. […]

[3] = tested on: taxane site of assembled cross-linked MTs; assay: Displacement of FTX2 from the taxane site (fluorescence polarization); assay type: binding, calf; settings: 35 °C
Procedure: Purified calf brain tubulin and chemicals were obtained as previously described. Tau-mCherry was expressed and purified as described previously. Human Kif5B-EGFP (amino acids 1-905), containing a C terminal fluorescent-tag followed by a 3C protease cleavage site and a 6 × His-tag was expressed and purified as in with some modifications. Prior to purification, cells were resuspended in 1:1 ratio of lysis buffer (30 mM HEPES pH 7.5, 300 mM NaCl, 0.5 mM ATP, 5% glycerol, 20 mM imidazole, […]) supplemented with 1× Protease inhibitor cocktail and benzonase to the final concentration of 25 units/ml. Cells were homogenized by repeated pipetting. Cells were lysed by spinning for 45 min at 40,000 rpm in 45 Ti fixed-angle rotor (Beckman Coulter) at 4 °C. The supernatant was incubated with pre-equilibrated HisPUR NiNTA agarose resin (Thermo Fisher Scientific) for 1 h in a tightly closed gravity-flow column (Thermo Fisher Scientific) at 4 °C by slowly rotating. Subsequently, the resin was washed once lysis buffer and then with buffer B (30 mM HEPES pH 7.5, 300 mM NaCl, 0.5 mM ATP, 5% glycerol, 30 mM imidazole, […]). The protein was eluted from the resin after an overnight cleavage of the 6 × His-tag with 3C HRV protease in lysis buffer at 4 °C. The eluted protein was further purified via size exclusion chromatography on Superdex 200 10/300 GL column equilibrated in exclusion buffer (30 mM HEPES pH 7.5, 300 mM NaCl, 0.5 mM ATP, 5% glycerol, […]). Peak fractions were analyzed via SDS-PAGE, pooled and the protein was concentrated with Amicon Ultra-15 Centrifugal Filter tubes (Millipore). Purified proteins were aliquoted, snap-frozen in liquid N2, and stored at −80 °C.
The equilibrium binding constant of 1a and 1b to the taxane site of assembled MTs were determined by the displacement of FTX2 from the taxane site in cross-linked MTs. The displacement isotherm of each ligand was measured at least three times in two different plates with a fluorescence polarization microplate reader, as described. A mixture of 50 nM taxane binding sites and 50 nM FTX2 in GAB buffer was sampled in a 96-well plate. […] After mixing the samples for 10 min by shaking at 250 rpm, they were incubated 20 min at the desired temperatures (26, 35 or 42 °C) and their anisotropies were measured using a Spark Tecan plater reader in fluorescence polarization at emission of 535 nm and excitation of 485 nm. A sample containing 50 nM taxane binding sites was employed as blank, and a 50 nM solution of FTX2 in GAB, 0.1 mM GTP was employed as anisotropy standard. G factor was calculated as a mean over several cells in different conditions. The molar saturation fraction, X b , of the probe for each competitor concentration is calculated from the polarization values measured, P. Measurements of the polarization of FTX2 completely displaced (P 0 ) and, in absence of the competitor ligand (P sat), are required for data processing. The binding of FTX2 in the presence of the competitor ligand (X b = (P–P 0 /P sat – P 0 ) · X sat) was calculated and best fitted to the equilibrium binding constant of the competitor assuming unitary stoichiometry and the binding constant of the reference ligand (FTX2) with a PC program (Equigra v5).
Once the equilibrium binding constants are measured at different temperatures, the standard free energy of binding at a given temperature is calculated from the binding constant as ΔG 0app = −RT Ln K a, the standard enthalpy of the binding reaction is calculated from the representation of Ln K a versus 1/T (Van’t Hoff representation), and the slope of this representation multiplied by −R is equal to −ΔH 0app. The standard entropy of binding to ΔS 0app is calculated from the slope of the linear regression of ΔG 0app versus T.

| Molecule | Tau-mCherry coating of stabilized MTs [1] | kinesin-1 landing rate on stabilized MTs [2] | kinesin-1 time bound on stabilized MTs [2] | kinesin-1 velocity on stabilized MTs [2] | incremental binding free energy (ΔΔG), PTX-to-derivative modification [3] [kJ mol^–1] |
| --- | --- | --- | --- | --- | --- |
| Nc1nc2c(ncn2C2OC(COP(=O)(O)CP(=O)(O)OP(=O)(O)O)C(O)C2O)c(=O)[nH]1 (stereo not drawn) [GMPCPP, guanosine-5′-[(α,β)-methyleno]triphosphate] | bound diffusively | decreased on GMPCPP compared with PTX | increased the time bound | decreased the velocity | – |
| CC(=O)OC1C(=O)C2(C)C(OC(=O)C(C)NC(=O)CCCCCNC(=O)c3ccc(-c4c5ccc(=O)cc-5oc5cc(O)ccc45)c(C(=O)O)c3)CC3OCC3(OC(C)=O)C2C(OC(=O)c2ccccc2)C2(O)CC(OC(=O)C(O)C(NC(=O)c3ccccc3)c3ccccc3)C(C)=C1C2(C)C (stereo not drawn) [HFX, Hexaflutax, reference compound] | – | – | – | – | 6.9 |
| Flutax-1 [reference compound] | – | – | – | – | −1.63 |
